{"source": "patent US12115137B2", "about": "“Synergistic combinations of atorvastatin and cannabidiol (CBD)” (Indication BioScience LLC, priority 2016, dated 2024)", "origin": "cited, not measured here", "key": {"[1]": {"details": "with potent CYP3A4 inhibitors such as itraconazole"}, "CYP3A4": {"target": "CYP3A4 (Homo sapiens, UniProt P08684)", "sequence (P08684 whole entry)": "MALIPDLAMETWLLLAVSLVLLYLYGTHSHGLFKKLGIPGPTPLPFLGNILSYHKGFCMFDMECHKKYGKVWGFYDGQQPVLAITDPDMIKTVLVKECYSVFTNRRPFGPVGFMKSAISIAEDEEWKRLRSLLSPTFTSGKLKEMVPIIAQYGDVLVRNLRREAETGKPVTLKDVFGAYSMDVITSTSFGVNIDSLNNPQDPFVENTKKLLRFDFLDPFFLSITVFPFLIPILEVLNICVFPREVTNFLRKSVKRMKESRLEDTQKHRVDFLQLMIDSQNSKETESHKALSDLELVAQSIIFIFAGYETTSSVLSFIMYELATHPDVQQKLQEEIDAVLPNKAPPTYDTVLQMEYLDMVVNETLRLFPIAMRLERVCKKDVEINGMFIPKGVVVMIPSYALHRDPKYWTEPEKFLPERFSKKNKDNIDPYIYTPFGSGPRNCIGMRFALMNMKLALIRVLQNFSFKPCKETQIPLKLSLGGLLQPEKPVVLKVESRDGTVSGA", "details": "Yamaori et al. 2011"}, "[2]": {"details": "oral, humans"}, "CYP2C19": {"target": "CYP2C19 (Homo sapiens, UniProt P33261)", "sequence (P33261 whole entry)": "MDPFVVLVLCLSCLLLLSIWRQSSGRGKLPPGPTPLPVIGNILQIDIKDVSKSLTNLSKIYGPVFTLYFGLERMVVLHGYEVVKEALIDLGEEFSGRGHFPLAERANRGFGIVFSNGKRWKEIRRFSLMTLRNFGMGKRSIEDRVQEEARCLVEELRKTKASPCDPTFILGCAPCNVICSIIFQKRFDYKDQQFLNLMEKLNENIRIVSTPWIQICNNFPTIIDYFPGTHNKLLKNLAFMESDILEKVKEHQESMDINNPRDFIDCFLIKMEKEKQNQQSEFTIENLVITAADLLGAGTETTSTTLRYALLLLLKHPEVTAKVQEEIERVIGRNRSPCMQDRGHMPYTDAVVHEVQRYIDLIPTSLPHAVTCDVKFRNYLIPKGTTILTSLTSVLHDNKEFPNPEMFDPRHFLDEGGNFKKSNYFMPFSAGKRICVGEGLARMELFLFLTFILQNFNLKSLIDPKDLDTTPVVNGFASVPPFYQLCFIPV", "details": "Jiang et al. 2013"}, "CYP2C9": {"target": "CYP2C9 (Homo sapiens, UniProt P11712)", "sequence (P11712 whole entry)": "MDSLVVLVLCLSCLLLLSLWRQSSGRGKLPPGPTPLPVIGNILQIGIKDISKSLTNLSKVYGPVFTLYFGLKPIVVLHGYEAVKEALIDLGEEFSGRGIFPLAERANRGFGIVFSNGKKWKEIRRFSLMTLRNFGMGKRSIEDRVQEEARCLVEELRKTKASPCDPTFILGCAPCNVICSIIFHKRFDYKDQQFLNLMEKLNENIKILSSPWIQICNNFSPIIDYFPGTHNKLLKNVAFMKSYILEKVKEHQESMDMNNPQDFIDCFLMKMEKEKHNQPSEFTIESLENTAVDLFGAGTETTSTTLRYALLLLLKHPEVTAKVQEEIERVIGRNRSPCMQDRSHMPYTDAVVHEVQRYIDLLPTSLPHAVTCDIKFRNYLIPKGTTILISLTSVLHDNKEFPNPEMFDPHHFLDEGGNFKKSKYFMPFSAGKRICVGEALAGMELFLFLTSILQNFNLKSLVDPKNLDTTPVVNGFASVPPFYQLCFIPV", "details": "Jiang at 333 and references cited"}, "[3]": {"assay": "not given", "remark": "listed apart in the source"}}, "data": [{"smiles": "COCc1c(C(C)C)nc(C(C)C)c(/C=C/[C@@H](O)C[C@@H](O)CC(=O)O)c1-c1ccc(F)cc1", "note": "[cerivastatin]", "values": [{"measurement": "deaths attributed to kidney failure from drug-related rhabdomyolysis", "setting": "before market withdrawal in 2001", "value": 52, "unit": "deaths"}, {"measurement": "rate of fatal rhabdomyolysis relative to other approved statins", "setting": "compared with other approved statins", "value": "ten times more common"}]}, {"smiles": "CC(C)c1c(C(=O)Nc2ccccc2)c(-c2ccccc2)c(-c2ccc(F)cc2)n1CC[C@@H](O)C[C@@H](O)CC(=O)O", "note": "[atorvastatin]", "values": [{"measurement": "increase in statin serum concentration", "setting": "[1]", "value": "two- to four-fold"}]}, {"smiles": "C=C(C)[C@@H]1CCC(C)=C[C@H]1c1c(O)cc(CCCCC)cc1O", "note": "[CBD, 2-[(1R,6R)-6-isopropenyl-3-methylcyclohex-2-en-1-yl]-5-pentylbenzene-1,3-diol]", "values": [{"measurement": "inhibition of CYP3A4", "setting": "CYP3A4", "value": "potent inhibitor"}, {"measurement": "bioavailability of CBD administered orally", "setting": "[2]", "value": "approximately 6%"}, {"measurement": "inhibition of CYP2C19", "setting": "CYP2C19", "value": "potent inhibitor"}, {"measurement": "inhibition of CYP2C9", "setting": "CYP2C9", "value": "potent inhibitor"}, {"measurement": "increase in plasma concentration of CBD", "setting": "[3]; with ketoconazole, a strong inhibitor of CYP3A4", "value": "about two-fold"}, {"measurement": "reduction of CBD levels", "setting": "[3]; with rifampin, a CYP3A4 inducer", "value": "50-60%"}]}]}
